Measurements taken from PMC11356900, “Synthesis, Structural Properties and Biological Activities of Novel Hydrazones of 2-, 3-, 4-Iodobenzoic Acid” (Molecules, 2024).
Converted amounts (≈) assume the structure as drawn.

Legend:
[1] = test system: Salmonella typhimurium ATCC 14028; test: Broth microdilution MIC/MBC; conditions: Salmonella enterica
[2] = test system: Pseudomonas aeruginosa ATCC 9027; test: Broth microdilution MIC/MBC; conditions: ATCC9027
[3] = test system: Candida albicans ATCC 10231; test: Broth microdilution MIC/MFC; format: cell-based; conditions: for MIC: ATCC10231, read-out: MIC
Description: (§1) Procedures of in vitro antimicrobial assays are described in Supplementary Materials.
(§2) 2. Microbiology – in vitro antimicrobial activity assays […]
(§3) using the broth microdilution method according to the European Committee on Antimicrobial Susceptibility Testing (EUCAST) and Clinical and Laboratory Standards Institute guidelines against a panel of reference and clinical or saprophytic strains of mi croorganisms, including the Gram-positive bacteria: Staphylococcus aureus ATCC 43300 (Methi-cillin Resistant S. aureus – MRSA), Staphylococcus aureus ATCC 29213 (Methicillin Susceptible S. aureus – MSSA), Staph-ylococcus epidermidis ATCC 12228, Micrococcus luteus ATCC 10240, Bacillus subtilis ATCC 6633 and Bacillus cereus ATCC 10876), Gram-negative bacteria: Bordetella bronchiseptica ATCC 4617, Escherichia coli ATCC 25922, Klebsiella pneumoniae ATCC 13883, Proteus mirabilis ATCC 12453, Salmonella typhimurium ATCC 14028 and Pseudomonas aeruginosa ATCC 9027, and fungi belonging to yeasts: Candida albicans ATCC 10231, Candida albicans ATCC 2091, Candida parapsilosis ATCC 22019, Candida glabrata ATCC 90030 and Candida krusei ATCC 14243. The microorganisms belonging to ATCC originated from American Type Culture Collection, routinely used for the evaluation of antimicrobials. All the used microbial cultures were first subcultured on nutrient agar or Sabouraud agar at 35°C for 18-24 h or 30°C for 24-48 h for bacteria […]
(§4) The surface of Mueller-Hinton agar (for bacteria) and RPMI 1640 with MOPS (for fungi) were inoculated with the suspensions of bacterial or fungal species. Microbial suspensions were prepared in sterile saline with an optical density of McFarland standard scale 0.5. The samples containing the compounds were dissolved in dimethyl sulfoxide (DMSO).
(§5) Furthermore, the bacterial and fungal suspensions put onto the Petri dishes with solid media containing 2 mg/mL of the tested compounds followed were incubated at 37°C for 24h and 30°C for 48h for bacteria and fungi, respectively.
(§6) The inhibition of microbial growth was estimated comparing with a control culture prepared without any tested sam- […]
(§7) antifungal compounds, respectively.
(§8) Subsequently, MIC (Minimal Inhibitory Concentration) of the compounds was examined by the microdilution broth method, using their two-fold dilutions in Mueller-Hinton broth (for bacteria) and RPMI 1640 broth with MOPS (for fungi) prepared in the 96-well polystyrene plates. The final concentrations of the compounds ranged from 1000 to 0.488 µg/mL. Microbial suspensions were prepared in 0.85% NaCl with an optical density of 0.5 McFarland standard. Next each bacterial or fungal suspension was added per each well containing broth and various concentrations of the exam-ined compounds. After incubation, the MIC was assessed spectrophotometrically as the lowest concentration of the […]
(§9) Appropriate DMSO, growth and sterile controls were carried out. The medium with no tested substances was used as a control The MBC (Minimal Bactericidal Concentration) and MFC (Minimal Fungicidal Concentration) are defined as the lowest concentration of the compounds that is required to kill a particular bacterial or fungal species. The MBC/MFC was determined by removing the culture used for the MIC determination from each well and spotted onto the appro-priate agar medium. The plates were incubated under appropriate conditions for bacteria and fungi. The lowest com-pounds concentration with no visible growth observed was assessed as a bactericidal/fungicidal concentration. All the experiments were repeated three times and the representative data are presented.
(§10) 1. European Committee for Antimicrobial Susceptibility Testing (EUCAST) Determination of minimum inhibitory con-centrations (MICs) of antibacterial agents by broth dilution. EUCAST discussion document E. Dis 5.1. Clin. Microbiol.
(§11) 2. Clinical and Laboratory Standards Institute. Reference method for broth dilution antifungal susceptibility testing of […]

[4] = test system: Candida glabrata ATCC 90030; test: Broth microdilution MIC/MFC; format: cell-based; conditions: Nakaseomyces glabratus; for MIC: ATCC90030, read-out: MIC; for MFC: ATCC90030, read-out: MFC
Description: as §1, §2, §3, §4, §5, §6, §7, §8, §9, §10, §11

[5] = test system: Candida albicans ATCC 2091; test: Broth microdilution MIC/MFC; format: cell-based; conditions: for MIC: ATCC2091, read-out: MIC
Description: as §1, §2, §3, §4, §5, §6, §7, §8, §9, §10, §11

[6] = test system: Candida parapsilosis ATCC 22019; test: Broth microdilution MIC/MFC; format: cell-based; conditions: Lodderomyces parapsilosis; for MFC: ATCC22019, read-out: MFC; for MIC: ATCC22019, read-out: MIC
Description: as §1, §2, §3, §4, §5, §6, §7, §8, §9, §10, §11

[7] = test system: Candida krusei ATCC 14243; test: Broth microdilution MIC/MFC; format: cell-based; conditions: Pichia kudriavzevii; for MIC: ATCC14243, read-out: MIC
Description: as §1, §2, §3, §4, §5, §6, §7, §8, §9, §10, §11

[8] = test system: Escherichia coli ATCC 25922; test: Broth microdilution MIC/MBC; conditions: ATCC25922
[9] = test system: Staphylococcus aureus ATCC 43300; test: Broth microdilution MIC/MBC; conditions: ATCC43300 / MRSA
[10] = test system: Klebsiella pneumoniae ATCC 13883; test: Broth microdilution MIC/MBC; conditions: ATCC13883
[11] = test system: Micrococcus luteus ATCC 10240; test: Broth microdilution MIC/MBC
[12] = test system: Staphylococcus epidermidis ATCC 12228; test: Broth microdilution MIC/MBC; conditions: ATCC12228
[13] = test system: Bordetella bronchiseptica ATCC 4617; test: Broth microdilution MIC/MBC; conditions: ATCC4617
[14] = test system: Staphylococcus aureus ATCC 29213; test: Broth microdilution MIC/MBC; conditions: ATCC29213
[15] = test system: Staphylococcus aureus ATCC 25923; test: Broth microdilution MIC/MBC
[16] = test system: Bacillus cereus ATCC 10876; test: Broth microdilution MIC/MBC
[17] = test system: Proteus mirabilis ATCC 12453; test: Broth microdilution MIC/MBC; conditions: ATCC12453
[18] = test system: Bacillus subtilis ATCC 6633; test: Broth microdilution MIC/MBC; conditions: ATCC6633
Candida spp. = test: Broth microdilution, summary over reference yeasts; format: cell-based; conditions: reference yeasts from Candida spp.
Description: as §1, §2, §3, §4, §5, §6, §7, §8, §9, §10, §11

Gram-positive bacteria = test: Broth microdilution, summary over reference Gram-positive bacteria; format: cell-based; conditions: reference Gram-positive bacteria / studied bacteria
Description: as §1, §2, §3, §4, §5, §6, §7, §8, §9, §10, §11

[19] = Staphylococcus aureus, ATCC25923

Structure (SMILES) | MIC [1] [µg/mL] | MIC [2] [µg/mL] | MIC [3] [µg/mL] | MIC [4] [µg/mL] | MIC [5] [µg/mL] | MIC [6] [µg/mL] | MIC [7] [µg/mL] | MIC [8] [µg/mL] | MIC [9] [µg/mL] | MIC [10] [µg/mL] | MBC ([11]; Micrococcus luteus, ATCC10240) [µg/mL] | MIC ([11]; Micrococcus luteus, ATCC10240) [µg/mL] | MIC [12] [µg/mL] | MIC [13] [µg/mL] | MIC [14] [µg/mL] | MIC [15, 19] [µg/mL] | MIC ([16]; Bacillus cereus, ATCC10876) [µg/mL] | melting point [°C] | MIC [17] [µg/mL] | MIC [18] [µg/mL] | other results
NNC(=O)c1ccc(I)cc1 [Compound 6, 4-iodobenzohydrazide] | > 1000 | > 1000 | > 1000 | > 1000 | > 1000 | 250 (≈ 954 µM) | > 1000 | > 1000 | > 1000 | > 1000 | > 1000 | 500 (≈ 1910 µM) | 1000 (≈ 3820 µM) | > 1000 | > 1000 | > 1000 | > 1000 | 161 to 162 | > 1000 | 1000 (≈ 3820 µM) | MFC [6]: > 1000 µg/mL; MBC [12]: > 1000 µg/mL; MBC [18]: > 1000 µg/mL
O=C(N/N=C/c1cc(Cl)cc(Cl)c1O)c1ccc(I)cc1 [Compound 24, N-[(3,5-dichloro-2-hydroxyphenyl)methylidene]-4-iodobenzohydrazide] | > 1000 | > 1000 | 500 (≈ 1150 µM) | 250 (≈ 575 µM) | 1000 (≈ 2300 µM) | 1000 (≈ 2300 µM) | > 1000 | > 1000 | > 1000 | > 1000 | > 1000 | 500 (≈ 1150 µM) | > 1000 | > 1000 | 1000 (≈ 2300 µM) | > 1000 | > 1000 | 281 to 284 | > 1000 | 500 (≈ 1150 µM) | MFC ([3]; ATCC10231, read-out: MFC): > 1000 µg/mL; MFC [4]: > 1000 µg/mL; MFC ([5]; ATCC2091, read-out: MFC): > 1000 µg/mL; MFC [6]: > 1000 µg/mL; MBC [14]: > 2000 µg/mL; MBC [18]: > 1000 µg/mL
CCOc1cccc(/C=N/NC(=O)c2ccccc2I)c1O [Compound 10, N-[(3-ethoxy-2-hydroxyphenyl)methylidene]-2-iodobenzohydrazide] | – | – | > 1000 | 1000 (≈ 2440 µM) | > 1000 | > 1000 | 1000 (≈ 2440 µM) | – | > 1000 | – | – | > 1000 | > 1000 | – | > 1000 | > 1000 | > 1000 | 167 to 170 | – | > 1000 | antifungal activity in words (Candida spp.): mild activity or were inactive; MFC [4]: > 1000 µg/mL; MFC ([7]; ATCC14243, read-out: MFC): > 1000 µg/mL; antibacterial activity in words (Gram-positive bacteria): no antimicrobial effect
O=C1CN(/N=C/c2ccc([N+](=O)[O-])o2)C(=O)N1 [NIT, nitrofurantoin, reference compound] | 31.2 (≈ 131 µM) | – | – | – | – | – | – | 7.81 (≈ 32.8 µM) | 7.81 (≈ 32.8 µM) | 15.6 (≈ 65.6 µM) | 62.5 (≈ 262 µM) | 62.5 (≈ 262 µM) | 3.91 (≈ 16.4 µM) | 125 (≈ 525 µM) | – | 15.6 (≈ 65.6 µM) | 7.81 (≈ 32.8 µM) | – | 62.5 (≈ 262 µM) | 3.91 (≈ 16.4 µM) | MIC ([11]; Micrococcus luteus ATCC 10240): 62.5 (62.5) µg/mL; MBC [12]: 7.81 µg/mL (≈ 32.8 µM); MIC ([15]; Staphylococcus aureus ATCC 25923): 15.62 (15.62) µg/mL; MBC [15, 19]: 15.6 µg/mL (≈ 65.6 µM); MBC ([16]; Bacillus cereus ATCC 10876): 15.62 µg/mL (≈ 65.6 µM); MBC ([16]; Bacillus cereus, ATCC10876): 15.6 µg/mL (≈ 65.6 µM); MBC [18]: 3.91 µg/mL (≈ 16.4 µM)
CCOc1cccc(/C=N/NC(=O)c2ccc(I)cc2)c1O [Compound 25, N-[(3-ethoxy-2-hydroxyphenyl)methylidene]-4-iodobenzohydrazide] | > 1000 | > 1000 | > 1000 | > 1000 | > 1000 | 250 (≈ 609 µM) | > 1000 | > 1000 | > 1000 | > 1000 | 62.5 (≈ 152 µM) | 31.2 (≈ 76.2 µM) | 1000 (≈ 2440 µM) | > 1000 | > 1000 | > 1000 | > 1000 | 200 to 207 | > 1000 | > 1000 | MFC [6]: > 1000 µg/mL; MBC [12]: > 1000 µg/mL
